Assay results from US8889705B2, “Noscapine analogs and their use in treating cancers” (Emory University, priority 2007, dated 2014).
Like-named read-outs stand apart in the source and are kept apart here.

Tests used:
tubulin [1] = target: T1, tubulin; assay: Tubulin binding assay (fluorescence titration, quenching of intrinsic tubulin fluorescence); set-up: species or system mammalian; conditions: 2 μM tubulin, 45 min at 37° C., double reciprocal plot; read-out: dissociation constant (Kd) for binding to tubulin
T1 construct: other: 2 μM tubulin, 45 min at 37° C., double reciprocal plot; rate and extent of tubulin polymerization; other: 25 μM or 100 μM
Description: Fluorescence titration for determining the tubulin binding parameters was performed as described previously (Gupta and Panda, 2002). In brief, 9-nitro-nos (0-100 μM) was incubated with 2 μM tubulin in 25 mM PIPES, pH 6.8, 3 mM MgSO4 and 1 mM EGTA for 45 min at 37° C. The relative intrinsic fluorescence intensity of tubulin was then monitored in a JASCO FP-6500 spectrofluorometer (JASCO, Tokyo, Japan) using a cuvette of 0.3-cm path length, and the excitation wavelength was 295 nm. The fluorescence emission intensity of 9-nitro-nos at this excitation wavelength was negligible. A 0.3-cm path-length cuvette was used to minimize the inner filter effects caused by the absorbance of 9-nitro-nos at higher concentration ranges. In addition, the inner filter effects were corrected using a formula Fcorrected=Fobserved·antilog [(Aex+Aem)/2], where Aex is the absorbance at the excitation wavelength and Aem is the absorbance at the emission wavelength. The dissociation constant (Kd) was determined by the formula: 1/B=Kd/[free ligand]+1, where B is the fractional occupancy and [free ligand] is the concentration of free noscapine or 9-nitro-nos. The fractional occupancy (B) was determined by the formula B=ΔF/ΔFmax, where ΔF is the change in fluorescence intensity when tubulin and its ligand are in equilibrium and ΔFmax is the value of maximum fluorescence change when tubulin is completely bound with its ligand. ΔFmax was calculated by plotting 1/ΔF versus 1/ligand using total ligand concentration as the first estimate of free ligand concentration.
Fluorescence titration for determining the tubulin binding parameters was performed as described previously. In brief, 9-F-nos, 9-Cl-nos, 9-Br-nos or 9-I-nos (0-100 μM) was incubated with 2 μM tubulin in 25 mM PIPES, pH 6.8, 3 mM MgSO4, and 1 mM EGTA for 45 min at 37° C. The relative intrinsic fluorescence intensity of tubulin was then monitored in a JASCO FP-6500 spectrofluorometer (JASCO, Tokyo, Japan) using a cuvette of 0.3-cm path length, and the excitation wavelength was 295 nm. The fluorescence emission intensity of noscapine and its derivatives at this excitation wavelength was negligible. A 0.3-cm path-length cuvette was used to minimize the inner filter effects caused by the absorbance of these agents at higher concentration ranges. In addition, the inner filter effects were corrected using a formula F corrected=F observe·antilog [(Aex+Aem)/2], where Aex is the absorbance at the excitation wavelength and Aem is the absorbance at the emission wavelength. The dissociation constant (Kd) was determined by the formula: 1/B=Kd/[free ligand]+1, where B is the fractional occupancy and [free ligand] is the concentration of 9-F-nos, 9-Cl-nos, 9-Br-nos or 9-I-nos. The fractional occupancy (B) was determined by the formula B=ΔF/ΔFmax, where ΔF is the change in fluorescence intensity when tubulin and its ligand are in equilibrium and ΔFmax is the value of maximum fluorescence change when tubulin is completely bound with its ligand. ΔFmax was calculated by plotting 1/ΔF versus 1/[free ligand].

CEM cells = assay: In vitro cell proliferation MTS assay; format: cell-based; conditions: Homo sapiens, CCRF-CEM, 72 hours
Description: (§1) Suspension cells (CEM, CEMNLB100 and CEM/VM-1-5) were cultured in RPMI-1640 media containing 10% FBS and then seeded into 96-well plates at a density of 5×10^3 cells per well and were treated with increasing gradient concentrations of 9-nitro-nos for 72 hours. Measurement of cell proliferation was performed colorimetrically by 3-(4,5-dimethylthiazol-2-yl)-5-(3-carboxymethoxyphenyl)-2-(4-sulphophenyl)-2H-tetrazolium, inner salt (MTS) assay, using the CellTiter96 AQueous One Solution Reagent (Promega, Madison, Wis.). Cells were exposed to MTS for 3 hours and absorbance was measured using a microplate reader (Molecular Devices, Sunnyvale, Calif.) at an optical density (OD) of 490 nm. The percentage of cell survival as a function of drug concentration for both the assays was then plotted to determine the IC50 value, which stands for the drug concentration needed to prevent cell proliferation by 50%.
as §1, with “(CEM)” for “(CEM, CEMNLB100 and CEM/VM-1-5)”, “were” for “were cultured in RPMI-1640 media containing 10% FBS and then”, “increasing” for “increasing gradient”, “all halogenated analogs” for “9-nitro-nos”

MCF-7 cells [2] = assay: Sulforhodamine B cell proliferation assay; format: cell-based, human; conditions: for IC50: MCF-7, 72 hours, SRB
Description: (§2) Sulforhodamine B (SRB) assay: The cell proliferation assay was performed in 96-well plates as described previously. Adherent cells (MCF-7 and MDA-MB-231) were seeded in 96-well plates at a density of 5×10^3 cells per well. They were treated with increasing concentrations of the halogenated analogs the next day while in log-phase growth. After 72 hours of drug treatment, cells were fixed with 50% trichloroacetic acid and stained with 0.4% sulforhodamine B dissolved in 1% acetic acid. After 30 minutes, cells were then washed with 1% acetic acid to remove the unbound dye. The protein-bound dye was extracted with 10 mM Tris base to determine the optical density at 564-nm wavelength.

MDA-MB-231 cells [3] = assay: Sulforhodamine B cell proliferation assay; format: cell-based; conditions: Homo sapiens; MDA-MB-231, 72 hours, SRB
Description: as §2

MCF-7 cells [4] = assay: Cell cycle analysis (propidium iodide, flow cytometry); format: cell-based, human; conditions: for G0/G1 / G2/M / S / Sub-G1: MCF-7, 25 μM, mean ± S.E.M.; for percent sub-G1 cells compared with noscapine: MCF-7, lower doses (5 μM and 10 μM), 72 hours
Description: The flow cytometric evaluation of the cell cycle status was performed as described previously. Briefly, 2×10^6 cells were centrifuged, washed twice with ice-cold PBS, and fixed in 70% ethanol. Tubes containing the cell pellets were stored at 4° C. for at least 24 hours. Cells were then centrifuged at 1000×g for 10 min and the supernatant was discarded. The pellets were washed twice with 5 ml of PBS and then stained with 0.5 ml of propidium iodide (0.1% in 0.6% Triton-X in PBS) and 0.5 ml of RNase A (2 mg/ml) for 45 minutes in dark. Samples were then analyzed on a FACSCalibur flow cytometer (Beckman Coulter Inc., Fullerton, Calif.).

MDA-MB-231 cells [5] = assay: DAPI staining, cell morphology by fluorescence microscopy; format: cell-based, human; conditions: 25 μM, 72 hours
Description: Cell morphology was evaluated by fluorescence microscopy following DAPI staining (Vectashield, Vector Labs, Inc., Burlingame, Calif.). MDA-MB-231 cells were grown on poly-L-lysine coated coverslips in 6-well plates and were treated with the halogenated analogs at 25 μM for 72 hours. After incubation, coverslips were fixed in cold methanol and washed with PBS, stained with DAPI, and mounted on slides. Images were captured using a BX60 microscope (Olympus, Tokyo, Japan) with an 8-bit camera (Dage-MTI, Michigan City, Ind.) and IP Lab software (Scanalytics, Fairfax, Va.). Apoptotic cells were identified by features characteristic of apoptosis (e.g. nuclear condensation, formation of membrane blebs and apoptotic bodies).

tubulin [6] = target: T1, tubulin; conditions: values with literature reference [18], [12], [43]; read-out: dissociation constant (Kd) for binding to tubulin; cited from earlier work

| Compound | Kd (tubulin [1]) | IC50 (CEM cells) | IC50 (MCF-7 cells [2]; Homo sapiens, MCF7, 72 h) | IC50 (MDA-MB-231 cells [3]) | G0/G1 (MCF-7 cells [4]; 0 h) | G2/M (MCF-7 cells [4]; 0 h) | S (MCF-7 cells [4]; 0 h) | Sub-G1 (MCF-7 cells [4]; 0 h) | G0/G1 (MCF-7 cells [4]; 24 h) | G2/M (MCF-7 cells [4]; 24 h) | S (MCF-7 cells [4]; 24 h) | Sub-G1 (MCF-7 cells [4]; 24 h) | G0/G1 (MCF-7 cells [4]; 48 h) | G2/M (MCF-7 cells [4]; 48 h) | S (MCF-7 cells [4]; 48 h) | Sub-G1 (MCF-7 cells [4]; 48 h) | G0/G1 (MCF-7 cells [4]; 72 h) | G2/M (MCF-7 cells [4]; 72 h) | S (MCF-7 cells [4]; 72 h) | Sub-G1 (MCF-7 cells [4]; 72 h) | further results |
| --- | --- | --- | --- | --- | --- | --- | --- | --- | --- | --- | --- | --- | --- | --- | --- | --- | --- | --- | --- | --- | --- |
| COc1ccc2c(c1OC)C(=O)O[C@@H]2[C@H]1c2c(c(F)c3c(c2OC)OCO3)CCN1C [9-F-nos, (S)-6,7-dimethoxy-3-((R)-4-methoxy-6-methyl-9-fluoro-5,6,7,8-tetrahydro-[1,3]dioxolo[4,5-g]isoquinolin-5-yl)isobenzofuran-1(3H)-one] | 81 ± 8 µM | 2.3 ± 0.7 µM | 3.3 ± 0.8 µM | 8.2 ± 0.6 µM | 67.7 ± 5.6% | 18.5 ± 2.2% | 11.9 ± 1.5% | 0.2 ± 0.04% | 10.8 ± 2.4% | 65.9 ± 4.4% | 3.8 ± 1.1% | 6.8 ± 2.1% | 7.9 ± 2.8% | 43.7 ± 2.9% | 3.5 ± 0.8% | 34.5 ± 2.5% | 5.2 ± 2.2% | 34.4 ± 3.4% | 3.6 ± 1.5% | 48.6 ± 3.3% | percent sub-G1 cells compared with noscapine (MCF-7 cells [4]): higher; nuclear morphology (features of apoptotic cells), DAPI (MDA-MB-231 cells [5]): condensed chromosomes, numerous fragmented micronuclei, and apoptotic bodies are evident |
| COc1ccc2c(c1OC)C(=O)O[C@@H]2[C@H]1c2c(c(Br)c3c(c2OC)OCO3)CCN1C [9-Br-nos, (S)-6,7-dimethoxy-3-((R)-4-methoxy-6-methyl-9-bromo-5,6,7,8-tetrahydro-[1,3]dioxolo[4,5-g]isoquinolin-5-yl)isobenzofuran-1(3H)-one] | 54 ± 9.1 µM | 1.9 ± 0.2 µM | 1 ± 0.2 µM | 3.3 ± 0.4 µM | 53.3 ± 2.8% | 28.9 ± 4.4% | 12.7 ± 1.8% | 0.2 ± 0.1% | 10.4 ± 1.8% | 61.9 ± 3.6% | 3.4 ± 1.2% | 6.9 ± 2.4% | 6.5 ± 2.5% | 43.8 ± 3.4% | 2.8 ± 0.7% | 35.1 ± 3.5% | 4.6 ± 2.1% | 33.7 ± 3.5% | 2.4 ± 1.6% | 49.6 ± 2.7% | fold higher cytotoxic activity than noscapine (MCF-7 cells [2]; MCF-7, ratio of IC50): ~40 fold; percent sub-G1 cells compared with noscapine (MCF-7 cells [4]): higher; nuclear morphology (features of apoptotic cells), DAPI (MDA-MB-231 cells [5]): condensed chromosomes, numerous fragmented micronuclei, and apoptotic bodies are evident; Kd (tubulin [6]): 54 ± 9.1 µM |
| COc1ccc2c(c1OC)C(=O)OC2C1c2c(c(Cl)c3c(c2OC)OCO3)CCN1C (stereo not shown) [9-Cl-nos] | 40 ± 8 µM | 1.2 ± 0.3 µM | 1.9 ± 0.3 µM | 1.9 ± 0.3 µM | 69 ± 5.6% | 20.7 ± 3.4% | 7.5 ± 1.6% | 1.4 ± 0.5% | 11.5 ± 2.7% | 59.7 ± 5.2% | 4.3 ± 1.4% | 15.3 ± 2.5% | 8 ± 3.3% | 42.4 ± 3.8% | 4 ± 1.1% | 37.8 ± 3.2% | 5.9 ± 1.9% | 35.3 ± 3.9% | 4.1 ± 1.4% | 50.2 ± 2.5% | IC50 (MCF-7 cells [2]): 3.5 ± 0.4 µM; percent sub-G1 cells compared with noscapine (MCF-7 cells [4]): higher; nuclear morphology (features of apoptotic cells), DAPI (MDA-MB-231 cells [5]): condensed chromosomes, numerous fragmented micronuclei, and apoptotic bodies are evident; Kd (tubulin [6]): 40 ± 8 µM |
| COc1ccc2c(c1OC)C(=O)O[C@@H]2[C@H]1c2c(c(I)c3c(c2OC)OCO3)CCN1C [9-I-nos, (S)-6,7-dimethoxy-3-((R)-4-methoxy-6-methyl-9-iodo-5,6,7,8-tetrahydro-[1,3]dioxolo[4,5-g]isoquinolin-5-yl)isobenzofuran-1(3H)-one] | 22 ± 4 µM | 38.9 ± 3.5 µM | 45.6 ± 3.1 µM | 25.6 ± 2.4 µM | 60.6 ± 4.6% | 23.1 ± 3.7% | 13.9 ± 2.3% | 0.3 ± 0.2% | 17 ± 2.3% | 44.5 ± 5.1% | 3.1 ± 1.3% | 7.7 ± 1.7% | 15.4 ± 4.5% | 25.9 ± 4.1% | 2.9 ± 0.6% | 28.1 ± 3.1% | 17 ± 1.9% | 20.7 ± 2.2% | 4.9 ± 2.2% | 30.1 ± 3.1% | nuclear morphology (features of apoptotic cells), DAPI (MDA-MB-231 cells [5]): condensed chromosomes, numerous fragmented micronuclei, and apoptotic bodies are evident |
